In patent US11759461B2, “Small molecule inhibitors of cancer stem cells and mesenchymal cancer types” (The Scripps Research Institute, priority 2017, dated 2023):

test system: FOXC2-expressing HMLER cells; assay: Cell Titer Glo viability of FOXC2-HMLER cells (high throughput screen and 10-point response); type: cell-based; settings: Homo sapiens; scored relative to parent compound 2; 72 hours; read-out: Activity Score, inhibition of FOXC2-expressing HMLER cells by Formula II compounds
Protocol: For high throughput screening, FOXC2-HMLER and HMLER cells were plated at 10^3 cells per well in white 384-well plates in 50 μL of MEGM medium (Lonza). Cells were allowed to attach for one hour before compound was transferred to each well as a DMSO solution using a 100 nL pintool head affixed to a PerkinElmer FX instrument. After 72-hour incubation, 30 μL of a Cell Titer Glo solution (diluted 1:6 in water, Promega) was dispensed into each well and luminance values were recorded using an Envision plate reader. […] All other miniaturized, selective viability experiments were performed as above using the indicated growth medium.
More specifically, in the high throughput screening assay above, each cell line was plated at 1,000 cells per well in 384-well plates, treated for 72 hours with 2 μM of test compound, and the viability of each line was determined in parallel by Cell Titer Glo (Promega) luminance measurements.

SMILES | IC50
COc1ccc(NCc2cc3cc4c(cc3n(CC(=O)Nc3ccccc3C)c2=O)OCCO4)cc1 [Compound 2BO] | > 20 µM
COc1ccc(NCc2cc3cc4c(cc3n(CC(=O)Nc3ccc(C)cc3)c2=O)OCCO4)cc1 [Compound 2BP] | > 20 µM
COc1ccc(NC(=O)Cn2c(=O)c(CNc3ccc(C)cc3)cc3cc(OC)c(OC)cc32)cc1 [Compound 2BQ] | > 20 µM
COc1ccc2cc(CNc3ccccc3)c(=O)n(CC(=O)Nc3cccc(F)c3)c2c1 [Compound 2BR] | > 20 µM
COc1ccc2cc(CNc3ccccc3)c(=O)n(CC(=O)Nc3cc(Cl)ccc3OC)c2c1 [Compound 2BS] | > 20 µM
CCc1ccc(NCc2cc3ccc(OC)cc3n(CC(=O)Nc3cccc(Cl)c3)c2=O)cc1 [Compound 2BT] | > 20 µM
COc1cccc(NC(=O)Cn2c(=O)c(CNc3ccc(C)cc3)cc3cc(OC)c(OC)cc32)c1 [Compound 2BU] | > 20 µM
COc1ccc(NCc2cc3ccc(OC)cc3n(CC(=O)Nc3ccccc3C)c2=O)cc1 [Compound 2BV] | > 20 µM
COc1ccc2cc(CNc3ccccc3)c(=O)n(CC(=O)Nc3ccc(Br)cc3)c2c1 [Compound 2BW] | > 20 µM
COc1ccc2cc(CNc3ccccc3)c(=O)n(CC(=O)Nc3cccc(Cl)c3)c2c1 [Compound 2BX] | > 20 µM
COc1cccc(NC(=O)Cn2c(=O)c(CNc3ccccc3)cc3cc4c(cc32)OCCO4)c1 [Compound 2BY] | > 20 µM
COc1ccc2cc(CNc3ccc(C)cc3)c(=O)n(CC(=O)Nc3cccc(C(F)(F)F)c3)c2c1 [Compound 2BZ] | > 20 µM
CCOc1ccccc1NC(=O)Cn1c(=O)c(CNc2ccc(CC)cc2)cc2ccc(OC)cc21 [Compound 2B] | < 1 µM
COc1ccc2cc(CNc3ccccc3)c(=O)n(CC(=O)Nc3ccc(Cl)cc3)c2c1 [Compound 2CA] | > 20 µM
COc1cc2cc(CNc3ccccc3)c(=O)n(CC(=O)Nc3ccc(C)cc3C)c2cc1OC [Compound 2CB] | > 20 µM
COc1ccc2cc(CNc3ccccc3)c(=O)n(CC(=O)Nc3cc(Cl)ccc3C)c2c1 [Compound 2CC] | > 20 µM

SMILES | IC50
Cc1ccc(NCc2cc3cc4c(cc3n(CC(=O)Nc3cc(C)ccc3C)c2=O)OCCO4)cc1 [Compound 2CD] | > 20 µM
COc1ccc2cc(CNc3ccc(C)cc3)c(=O)n(CC(=O)Nc3ccc4c(c3)OCCO4)c2c1 [Compound 2CE] | > 20 µM
CCc1ccc(NCc2cc3cc(OC)c(OC)cc3n(CC(=O)Nc3ccccc3)c2=O)cc1 [Compound 2CF] | > 20 µM
COc1cc2cc(CNc3ccccc3)c(=O)n(CC(=O)Nc3ccc(F)cc3)c2cc1OC [Compound 2CG] | > 20 µM
CCc1cccc(NC(=O)Cn2c(=O)c(CNc3ccccc3)cc3ccc(OC)cc32)c1 [Compound 2CH] | > 20 µM
CCc1ccc(NCc2cc3cc4c(cc3n(CC(=O)Nc3ccc(CC)cc3)c2=O)OCCO4)cc1 [Compound 2CI] | > 20 µM
COc1cc2cc(CNc3ccc(C)cc3)c(=O)n(CC(=O)Nc3ccc(C(C)C)cc3)c2cc1OC [Compound 2CJ] | > 20 µM
COc1ccc2cc(CNc3ccccc3)c(=O)n(CC(=O)Nc3ccc(C)c(C)c3)c2c1 [Compound 2CK] | > 20 µM
CCc1ccc(NC(=O)Cn2c(=O)c(CNc3ccccc3)cc3cc(OC)c(OC)cc32)cc1 [Compound 2CL] | > 20 µM
COc1ccc(OC)c(NC(=O)Cn2c(=O)c(CNc3ccccc3)cc3ccc(C)cc32)c1 [Compound 2CM] | > 20 µM
COc1cccc(NC(=O)Cn2c(=O)c(CNc3ccccc3)cc3cc(OC)c(OC)cc32)c1 [Compound 2CN] | > 20 µM
COc1ccc2cc(CNc3ccccc3)c(=O)n(CC(=O)Nc3ccc(C)c(Cl)c3)c2c1 [Compound 2CO] | > 20 µM
CCc1ccc(NCc2cc3ccc(OC)cc3n(CC(=O)Nc3ccccc3C)c2=O)cc1 [Compound 2CP] | > 20 µM
CCOc1ccc(NC(=O)Cn2c(=O)c(CNc3ccccc3)cc3ccc(C)cc32)cc1 [Compound 2CQ] | > 20 µM
COc1ccc(NC(=O)Cn2c(=O)c(CNc3ccc(C)cc3)cc3cc4c(cc32)OCCO4)cc1 [Compound 2CR] | > 20 µM
